# Patent US10407415B2, “Dihydrate of benzothiophene compound or of a salt thereof, and process for producing the same” (OTSUKA PHARMACEUTICAL CO., LTD., priority 2012, dated 2019)
# Tests used:
# [1] = Measurement of drug residue in muscle; format: in vivo; conditions: rat, injectable preparation 100 mg/mL (finely ground, mean particle diameter 3.5 μm) intramuscularly injected at 25 mg/kg, dissected 56 days after the injection
# Description: The dihydrate of the present invention (150 mg) was dispersed to the suspension medium (1 mL) described below, and pulverized using 5 mm zirconia beads (1.2 g, pulverization time: 30 min) while being stirred with a stirrer. The suspension medium used for pulverization was a solution containing 0.832% (w/v) sodium carboxymethylcellulose (CMC-Na), 4.16% (w/v) mannitol, and 0.074% (w/v) sodium dihydrogenphosphatemonohydrate. The pH thereof was adjusted to 7.0 by adding an appropriate amount of sodium hydroxide. The concentration of each preparation was adjusted to 100 mg/mL using this medium.
# An anhydride was subjected to pulverization in the same manner to obtain an anhydride (finely ground product) having a mean particle diameter of 3.5 μm. The mean particle diameter was measured using a laser diffraction particle size analyzer (SALD-3000) or SALD-3100, manufactured by Shimadzu Corporation).
# Injectable preparations each containing the dihydrate of the present invention (finely ground product, mean particle diameter: 3.5 μm) or an anhydride (finely ground product, mean particle diameter: 3.5 μm) were obtained by the procedure described above.
# Each injectable preparation thus obtained was intramuscularly injected into a rat in a dosage of 25 mg/kg. Each injectable preparation was injected into three rats.
# [2] = Pharmacokinetics test using a dog (intramuscular injectable preparation); format: in vivo; conditions: 10 mg/kg calculated as the anhydride
# Description: Injectable preparations containing the dihydrate of the present invention as an active ingredient were formulated as shown in Table 3. Each of the injectable preparations was injected into the thigh muscle of a dog in such a dosage that 10 mg/kg of active ingredient calculated as the anhydride of the present invention was contained. FIG. 14 is a graph showing the mean blood concentration-time profile after the injection. As is clear from FIG. 14, the sustained release property can be stably maintained for more than 30 days from the injection.
Structure (SMILES),The number having residue in muscle (Number having residue/Total) [1],"time for which the sustained release property is stably maintained (mean blood concentration-time profile, FIG. 14) ([2]; injected into the thigh muscle, Table 3 formulation)","Stimulation at the injection site ([2]; thigh muscle injection, observed 7 days after the injection)",The number having residue in muscle (Number having residue/Total) ([1]; dihydrate)
"O=c1ccc2ccc(OCCCCN3CCN(c4cccc5sccc45)CC3)cc2[nH]1 [Anhydride, 7-[4-(4-benzo[b]thiophen-4-yl-piperazin-1-yl)butoxy]-1H-quinolin-2-one anhydride, reference compound]",0/3,,,
"O=c1ccc2ccc(OCCCCN3CCN(c4cccc5sccc45)CC3)cc2[nH]1 [Dihydrate, 7-[4-(4-benzo[b]thiophen-4-yl-piperazin-1-yl)butoxy]-1H-quinolin-2-one dihydrate]",,more than 30 days,low,3/3
